Publication PMC12195967, “Cobalt(II) Complexes of 4′–Nitro–Fenamic Acid: Characterization and Biological Evaluation” (Molecules, 2025)

How the values were obtained:
EB–DNA adduct (CT DNA) = assay: EB-displacement (EB–DNA fluorescence quenching); format: binding, calf; settings: for relative EB–DNA fluorescence emission intensity (I/Io, %), final: % of the initial EB–DNA fluorescence remaining, λemission 594 nm; for percentage of EB–DNA fluorescence emission quenching (ΔI/I0, %): λexcitation 540 nm, emission 594 nm, buffer pH 7; for quenching constant Kq (EB–DNA): τ0 = 23 ns
Protocol: For the current study, the EB–DNA adduct was prepared in situ after 1-h pretreatment of EB (40 μΜ) and CT DNA (40 μΜ) in buffer solution (sodium chloride 150 mM and sodium citrate 15 mM at pH = 7).
Furthermore, the Stern–Volmer constants (KSV) that represent the ability of the compounds to induce quenching were calculated with the Stern–Volmer equation (Equation (S2)) and the corresponding Stern–Volmer plots […] vs. [Q] (Figure S8). […] The corresponding quenching constants (Kq) were calculated with Equation (S3) using the value of 23 ns as the fluorescence lifetime (τ0) of EB–DNA adduct.
S3.4 EB−displacement studies
The competition of the compounds with EB was investigated by fluorescence emission spectroscopy to examine whether the compounds can displace EB from its DNA−EB adduct. The CT DNA−EB complex was formed by pre−treating 40 μM EB and […] CT DNA in buffer (150 mM NaCl and 15 mM trisodium citrate at pH 7.0). The possible displacement of EB by the compound sand subsequently the intercalating effect was studied by the stepwise addition of a certain amount of the solution of each compound into the solution of the CT DNA−EB adduct. The solutions were excited at 540 nm and the emission was monitored from 550−700 nm with λmax = 592−594 nm and the effect of the addition of the compounds to the CT−DNA EB solution was recorded. […]
fluorescence emission bands at room temperature in solution or in the presence of CT DNA or EB under the same experimental conditions (λexcitation = 540 nm); therefore, the observed quenching of the EB−DNA solution may be attributed to the displacement of EB from its […]
The Stern−Volmer constants (KSV, in M−1) were calculated according to the linear Stern−Volmer equation (equation S2) and the respective plots Io/I versus [compound]:
Io = 1 + K τ [Q] = 1 + K [Q] (equation S2) […]
where Io and I are the emission intensities of the EB−DNA solution in the absence and the presence of the compound, respectively, τo = the average lifetime of the emitting system without the quencher and kq = the quenching constant. Taking τo = 23 ns as the fluorescence lifetime of the EB−DNA adduct, the quenching constant of the compound (Kq, in M−1s−1) was calculated according to equation [6]: […]

CT DNA = assay: Interaction with CT DNA by UV-vis spectroscopy; format: binding, calf; settings: for percentage of the observed hyper-/hypochromism (ΔA/A0, %) / blue-/red-shift in λmax (Δλ, nm): upon addition of CT DNA; for DNA-binding constant Kb: Wolfe–Shimer equation
Protocol: UV-vis spectroscopy was employed to determine the interaction mode of the compounds (4′–NO2–fenH and its complexes 1–4) with DNA and calculate the DNA-binding constant (Kb). For this reason, the UV-vis spectra of the compounds (2 × 10^−5–10^−4 Μ) were recorded in the presence of incremental additions of CT DNA solution (Figure S4), and the changes (in absorbance and wavelength) of the initial bands were monitored. […] However, a definite conclusion cannot be reached from such spectroscopic data, but the interaction mode could be further corroborated by viscosity measurements.
The Kb values of the compounds were calculated with the Wolfe–Shimer equation (Equation (S1)) and the corresponding plots of [DNA]/(εA–εF) vs. [DNA] (Figure S5).
S3 Binding studies with CT DNA
In order to study the interaction of the compounds with DNA, the compound was initially dissolved in DMSO (1 mM). Mixing of such solutions with the aqueous buffer solutions of DNA used in the studies never exceeded 5% DMSO (v/v) in the final solution, which was needed due to low aqueous solubility of most compounds. In all experiments, the effect of DMSO on the data has been taken into consideration and the appropriate corrections have been performed. The interaction of the compound with CT DNA was monitored by UV−vis spectroscopy, and viscosity measurements, and via competitive studies with EB by fluorescence emission spectroscopy.
S3.1 Binding study with CT DNA by UV−vis spectroscopy
The interaction of the compound with CT DNA has been studied by UV−vis spectroscopy in order to investigate the possible binding mode to CT DNA and to calculate the DNA−binding constant (Kb). of the compounds Kb (in M−1) was determined with the Wolfe−Shimer equation (equation S1) and the plots [DNA]/(εA−εf) versus [DNA] using the UV−vis spectra of the compound (25–100 μM) recorded for a constant concentration with increasing amounts of CT DNA for diverse [compound]/[DNA] mixing ratios (= r).
According to the Wolfe−Shimer equation:
[DNA] = [DNA] + 1 (equation S1)
(εA−εf) (εb−εf) Kb(εb−εf) where [DNA] is the concentration of DNA in base pairs, εA = Aobsd/[compound], εf = the extinction coefficient for the free compound and εb = the extinction coefficient for the compound in the fully bound form. Kb is given by the ratio of slope to the y intercept in plots [DNA]/(εA−εf) versus [DNA]. […]

[1] = UV band at λmax 391–421 nm, + hyperchromism, − hypochromism
[2] = UV band at λmax 391–421 nm, + red-shift, − blue-shift

Structure (SMILES): C[O-].C[O-].Cc1ccc2ccc3ccc(C)nc3c2n1.Cc1ccc2ccc3ccc(C)nc3c2n1.O=C([O-])c1ccccc1Nc1ccc([N+](=O)[O-])cc1.O=C([O-])c1ccccc1Nc1ccc([N+](=O)[O-])cc1.[Co+2].[Co+2] [Complex 4, [Co2(4′–NO2–fen)2(μ–CH3O)2(neoc)2]]
- Stern–Volmer constant Ksv (EB–DNA) (EB–DNA adduct (CT DNA)): 7.78 (±0.24) × 10^4 M^−1
- relative EB–DNA fluorescence emission intensity (I/Io, %), final (EB–DNA adduct (CT DNA)): 26.0%
- percentage of EB–DNA fluorescence emission quenching (ΔI/I0, %) (EB–DNA adduct (CT DNA)): 74.0%
- quenching constant Kq (EB–DNA) (EB–DNA adduct (CT DNA)): 3.38 (±0.10) × 10^12 M^−1s^−1
- percentage of the observed hyper-/hypochromism (ΔA/A0, %) (CT DNA; [1]): −3%
- blue-/red-shift in λmax (Δλ, nm) (CT DNA; [2]): −4.5 nm
- DNA-binding constant Kb (CT DNA): 2.06e+06 M⁻¹

Structure (SMILES): O=C([O-])c1ccccc1Nc1ccc([N+](=O)[O-])cc1.O=C([O-])c1ccccc1Nc1ccc([N+](=O)[O-])cc1.[Co+2].c1cnc2c(c1)ccc1cccnc12 [Complex 3, [Co(4′–NO2–fen)2(phen)]]
- Stern–Volmer constant Ksv (EB–DNA) (EB–DNA adduct (CT DNA)): 7.39 (±0.21) × 10^4 M^−1
- relative EB–DNA fluorescence emission intensity (I/Io, %), final (EB–DNA adduct (CT DNA)): 26.3%
- percentage of EB–DNA fluorescence emission quenching (ΔI/I0, %) (EB–DNA adduct (CT DNA)): 73.7%
- quenching constant Kq (EB–DNA) (EB–DNA adduct (CT DNA)): 3.21 (±0.09) × 10^12 M^−1s^−1
- percentage of the observed hyper-/hypochromism (ΔA/A0, %) (CT DNA; [1]): −2.5%
- blue-/red-shift in λmax (Δλ, nm) (CT DNA; [2]): +0.5 nm

Structure (SMILES): O=C([O-])c1ccccc1Nc1ccc([N+](=O)[O-])cc1.O=C([O-])c1ccccc1Nc1ccc([N+](=O)[O-])cc1.[Co+2].c1ccc(Nc2ccccn2)nc1 [Complex 2, [Co(4′–NO2–fen)2(bipyam)]]
- Stern–Volmer constant Ksv (EB–DNA) (EB–DNA adduct (CT DNA)): 8.91 (±0.21) × 10^4 M^−1
- relative EB–DNA fluorescence emission intensity (I/Io, %), final (EB–DNA adduct (CT DNA)): 32.6%
- percentage of EB–DNA fluorescence emission quenching (ΔI/I0, %) (EB–DNA adduct (CT DNA)): 67.3%
- quenching constant Kq (EB–DNA) (EB–DNA adduct (CT DNA)): 3.88 (±0.09) × 10^12 M^−1s^−1
- blue-/red-shift in λmax (Δλ, nm) (CT DNA; UV band at λmax 321 nm): −0.5 nm
- percentage of the observed hyper-/hypochromism (ΔA/A0, %) (CT DNA; UV band at λmax 321 nm): +4%
- percentage of the observed hyper-/hypochromism (ΔA/A0, %) (CT DNA; [1]): −10%
- blue-/red-shift in λmax (Δλ, nm) (CT DNA; [2]): 0 nm

Structure (SMILES): CO.CO.CO.CO.O=C([O-])c1ccccc1Nc1ccc([N+](=O)[O-])cc1.O=C([O-])c1ccccc1Nc1ccc([N+](=O)[O-])cc1.[Co+2] [Complex 1, [Co(4′–NO2–fen)2(MeOH)4]]
- Stern–Volmer constant Ksv (EB–DNA) (EB–DNA adduct (CT DNA)): 4.99 (±0.14) × 10^4 M^−1
- relative EB–DNA fluorescence emission intensity (I/Io, %), final (EB–DNA adduct (CT DNA)): 35.4%
- percentage of EB–DNA fluorescence emission quenching (ΔI/I0, %) (EB–DNA adduct (CT DNA)): 64.6%
- quenching constant Kq (EB–DNA) (EB–DNA adduct (CT DNA)): 2.17 (±0.06) × 10^12 M^−1s^−1
- percentage of the observed hyper-/hypochromism (ΔA/A0, %) (CT DNA; [1]): −10%
- blue-/red-shift in λmax (Δλ, nm) (CT DNA; [2]): 0 nm

Structure (SMILES): O=C(O)c1ccccc1Nc1ccc([N+](=O)[O-])cc1 [4′–NO2–fenH, 4′–nitrofenamic acid]
- Stern–Volmer constant Ksv (EB–DNA) (EB–DNA adduct (CT DNA)): 5.36 (±0.27) × 10^4 M^−1
- relative EB–DNA fluorescence emission intensity (I/Io, %), final (EB–DNA adduct (CT DNA)): 52.9%
- percentage of EB–DNA fluorescence emission quenching (ΔI/I0, %) (EB–DNA adduct (CT DNA)): 47.1%
- quenching constant Kq (EB–DNA) (EB–DNA adduct (CT DNA)): 2.33 (±0.11) × 10^12 M^−1s^−1
- percentage of the observed hyper-/hypochromism (ΔA/A0, %) (CT DNA; [1]): −12%
- blue-/red-shift in λmax (Δλ, nm) (CT DNA; [2]): +20 nm
- DNA-binding constant Kb (CT DNA; listed as 4′–NO2–fenamic acid): 1.62e+06 M⁻¹
